Source: paper PMC8913746, “An open-like conformation of the sigma-1 receptor reveals its ligand entry pathway” (Nature Communications, 2022)
Numbering of substitutions follows the chain as printed. “And” between values parts separate entries of the source, which are not always exact repeats. Equal entries are not always repeated.

What was measured:
xlσ1R-C179/C203 = biological target: T1, xlσ1R-C179/C203 (Xenopus laevis, UniProt Q6DCU6, L179C/Y203C); test: ITC binding of PRE084 to xlσ1R-C179/C203 (disulfide oxidation / re-reduction)
T1 construct: The gene encoding the full-length wild-type σ1R from Xenopus laevis; hemagglutinin signal peptide (N); decahistidine (His10) (N); TEV protease recognition site (N); made in house; host or cells: Pichia pastoris GS115
T1 sequence (Q6DCU6 1-221 L179C/Y203C): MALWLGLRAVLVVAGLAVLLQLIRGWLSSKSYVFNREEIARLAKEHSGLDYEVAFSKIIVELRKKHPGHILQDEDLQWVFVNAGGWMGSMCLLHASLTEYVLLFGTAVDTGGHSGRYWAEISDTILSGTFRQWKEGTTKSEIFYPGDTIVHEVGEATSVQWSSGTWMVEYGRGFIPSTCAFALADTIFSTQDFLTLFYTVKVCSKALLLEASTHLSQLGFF

xlσ1R-C179 = biological target: T2, xlσ1R-C179 (Xenopus laevis, UniProt Q6DCU6, L179C); test: ITC binding of PRE084 to xlσ1R-C179 before/after mPEG-Mal-5K modification
T2 construct: The gene encoding the full-length wild-type σ1R from Xenopus laevis; hemagglutinin signal peptide (N); decahistidine (His10) (N); TEV protease recognition site (N); made in house; host or cells: Pichia pastoris GS115
T2 sequence (Q6DCU6 1-221 L179C): T1 sequence (Q6DCU6 1-221 L179C/Y203C) with C203Y

xlσ1R-C203 = biological target: T3, xlσ1R-C203 (Xenopus laevis, UniProt Q6DCU6, Y203C); test: ITC binding of PRE084 to xlσ1R-C203 before/after mPEG-Mal-5K modification
T3 construct: The gene encoding the full-length wild-type σ1R from Xenopus laevis; hemagglutinin signal peptide (N); decahistidine (His10) (N); TEV protease recognition site (N); made in house; host or cells: Pichia pastoris GS115
T3 sequence (Q6DCU6 1-221 Y203C): T1 sequence (Q6DCU6 1-221 L179C/Y203C) with C179L

wild-type xlσ1R = biological target: T4, wild-type xlσ1R (Xenopus laevis, UniProt Q6DCU6); test: ITC binding of PRE084 to wild-type xlσ1R before/after mPEG-Mal-5K modification; details: for WT stoichiometry, After modification: mPEG-Mal-5K; for Kd: WT Kd
T4 construct: The gene encoding the full-length wild-type σ1R from Xenopus laevis; hemagglutinin signal peptide (N); decahistidine (His10) (N); TEV protease recognition site (N); made in house; host or cells: Pichia pastoris GS115
T4 sequence (Q6DCU6 1-221): T1 sequence (Q6DCU6 1-221 L179C/Y203C) with C179L, C203Y

xls1R-C179 or xls1R-C203 = test: mPEG-Mal-5K modification of xlσ1R cysteine mutants with added PRE084 (SDS-PAGE); format: biochemical, Xenopus laevis; details: 1 mM PRE084 added to dialyzed protein sample before mPEG-Mal-5K treatment
Description: Modification of wild-type and cysteine mutants of xlσ1R was performed with a bulky thiol-modifying reagent, methoxypolyethylene glycol maleimide 5000 (mPEG-Mal-5K)[33]. Briefly, the SEC-purified xlσ1R protein in the absence of β-mercaptoethanol were incubated with 1 mM mPEG-Mal-5K at room temperature for 1 h, and the modification reaction was stopped by addition of β-mercaptoethanol to a final concentration of 10 mM before another SEC purification to remove any free mPEG-Mal-5K. For the entrance blocking experiment, the modified xlσ1R-C179 or xlσ1R-C203 proteins were subjected to ITC or SDS-PAGE analysis. For the assessment of disulfide formation in xlσ1R-C179/C203, the modified sample was analyzed by SDS-PAGE. To reduce background modification and facilitate gel analysis, the only native cysteine (Cys91) was mutated to serine in all samples for the disulfide analysis. […]
would affect the modification efficiency (Response Fig. 1). However, extensive dialysis of the […]
1 to lane 5 for C179, and lane 3 to la ne 7 f o r C2 03). […]
modification efficiency (compare lane 1 to lane 2 for C179, and lane 3 to lane 4 for C203).
Therefore, it seems less likely that the ligand binding hindered mPEG -Ma l-5K modification. […]
before mPEG-Ma l-5K treatment were indicated above the gel. Protein samples were analyzed by SDS-PAGE and Coomassie blue staining. […]

wild-type xls1R = biological target: T5, wild-type xls1R (Xenopus laevis, UniProt Q6DCU6); test: Resistance of wild-type xlσ1R to chymotrypsin with added PRE084 (SDS-PAGE); format: biochemical; details: 1 mM PRE084 added to dialyzed protein before chymotrypsin treatment
T5 construct: The gene encoding the full-length wild-type σ1R from Xenopus laevis; hemagglutinin signal peptide (N); decahistidine (His10) (N); TEV protease recognition site (N); made in house; host or cells: Pichia pastoris GS115
T5 sequence (Q6DCU6 1-221): T1 sequence (Q6DCU6 1-221 L179C/Y203C) with C179L, C203Y

[1] = Dissolution of DIM-3C for crystal soaking; format: physicochemical; details: for soaking xlσ1R crystals
Text: Finally, it is worth mentioning another structural effort that we attempted to capture an open conformation of σ1R by soaking a ligand of extended length into the xlσ1R crystals. We anticipated that the ligand would extend through the ligand entrance and cause the receptor to adopt an open state. Such an extended ligand, N^1,N^3-bis(1-((R)-3-([1,1′-biphenyl]-4-yl)butyl)-piperidin-4-yl)malonamide (DIM-3C)[21], was kindly provided by Dr. Collina and Dr. Rossino for soaking the xlσ1R crystals. […] The density was readily and best modeled with an S1RA molecule. Its morpholine ring sits between α4 and α5 and is surrounded by residues 179, 203, and Leu97, whereas the rest of the ligand remains outside of the receptor, possibly representing an entering (or exiting) pose for the ligand. Meanwhile, due to the relatively low resolution (3.80 Å) of the xlσ1RC179/C203-S1RA structure, this extra density needs to be interpreted with caution, and we used it only for supplementary discussion.

[2] = equilibrium dissociation constant (Kd)
[3] = ITC, Mean of repeats (source data Fig. 4e)
[4] = ITC, individual repeats (source data Fig. 4e)

For O=C(OCCN1CCOCC1)C1(c2ccccc2)CCCCC1 [PRE084, [2-(morpholin-4-yl)ethyl] 1-phenylcyclohexane-1-carboxylate], the Kd (xlσ1R-C179/C203; C179/C203 Kd, After oxidation) was 7.81 µM and 5.08 µM and 7.24 µM, the Kd (xlσ1R-C179/C203; C179/C203 Kd, Before oxidation) was 0.96 µM and 0.71 µM and 0.38 µM and 0.51 µM and 0.85 µM and the Kd (xlσ1R-C179/C203; C179/C203 Kd, Re-reduction) was 1.76 µM and 1.39 µM and 1.45 µM and 1.57 µM. For the same compound, the Kd (xlσ1R-C179/C203; [2]) was 0.68 µM and 6.71 µM and 1.54 µM, the Kd (xlσ1R-C179; C179 Kd, After modification) was 1.91 µM and 2.01 µM and 1.93 µM and 1.97 µM and the Kd (xlσ1R-C179; C179 Kd, Before modification) was 0.972 µM and 0.99 µM and 1.09 µM and 1.04 µM. The Kd (xlσ1R-C179; [2]) was 1.02 µM and 1.95 µM, the Kd (xlσ1R-C203; C203 Kd, After modification) was 1.5 µM and 1.73 µM and 1.62 µM and the Kd (xlσ1R-C203; C203 Kd, Before modification) was 0.971 µM and 0.977 µM and 1.03 µM. The “C203 stoichiometry, Before modification” value (xlσ1R-C203; [3]) was 0.8717, the Kd (xlσ1R-C203; [2]) was 1.61 µM and 0.99 µM and the “change of affinity (Kd) after mPEG-Mal-5K treatment” value (wild-type xlσ1R) was “changed little”. The “WT stoichiometry, Before modification” value (wild-type xlσ1R; [3]) was 0.8695, the “WT stoichiometry, Before modification” value (wild-type xlσ1R; [4]) was 0.883 and 0.874 and 0.993 and 0.728 and the “WT stoichiometry, After modification” value (wild-type xlσ1R; [3]) was 0.9143. The “WT stoichiometry, After modification” value (wild-type xlσ1R; [4]) was 0.933 and 0.896 and 0.874 and 1.040 and 0.883 and 0.860, the “change of stoichiometry (number of available binding sites per protomer) after mPEG-Mal-5K treatment” value (wild-type xlσ1R; ITC, modification of native Cys91) was “changed little” and the Kd (wild-type xlσ1R; After modification) was 1.22 µM and 1.29 µM and 1.23 µM and 1.08 µM (2×) and 1.12 µM. For the same compound, the Kd (wild-type xlσ1R; Before modification) was 1.12 µM and 1.21 µM and 0.871 µM and 1.1 µM, the “effect of added ligand on mPEG-Mal-5K modification efficiency” value (xls1R-C179 or xls1R-C203) was “no appreciable effect” and the “effect of added ligand on chymotrypsin digestion” value (wild-type xls1R) was “no appreciable effect”.

For C[C@H](CCN1CCC(NC(=O)CC(=O)NC2CCN(CC[C@@H](C)c3ccc(-c4ccccc4)cc3)CC2)CC1)c1ccc(-c2ccccc2)cc1 [DIM-3C, N^1,N^3-bis(1-((R)-3-([1,1′-biphenyl]-4-yl)butyl)-piperidin-4-yl)malonamide], the solubility [1] was “could only be dissolved with organic solvents such as methanol and dimethyl sulfoxide”.
